Measurements as given in paper PMC9918186, “Interaction of Positively Charged Oligopeptides with Blood Plasma Proteins” (International Journal of Molecular Sciences, 2023).

Columns and labels:
[1] = target: bovine serum albumin (BSA) (Bos taurus, UniProt P02769); test: Fluorescence quenching of BSA by peptides L1–3; conditions: for Stern–Volmer constant Ksv / logKb: BSA 1.0 µM, phosphate buffer; for Stern–Volmer constant Ksv: peptide 0.25–2.0 µM, λex 280 nm; for logKb: double log regression; for quenching rate constant kq: from Ksv with τ0 10^−8 s assumed
Chain of bovine serum albumin (BSA) (P02769 25-607): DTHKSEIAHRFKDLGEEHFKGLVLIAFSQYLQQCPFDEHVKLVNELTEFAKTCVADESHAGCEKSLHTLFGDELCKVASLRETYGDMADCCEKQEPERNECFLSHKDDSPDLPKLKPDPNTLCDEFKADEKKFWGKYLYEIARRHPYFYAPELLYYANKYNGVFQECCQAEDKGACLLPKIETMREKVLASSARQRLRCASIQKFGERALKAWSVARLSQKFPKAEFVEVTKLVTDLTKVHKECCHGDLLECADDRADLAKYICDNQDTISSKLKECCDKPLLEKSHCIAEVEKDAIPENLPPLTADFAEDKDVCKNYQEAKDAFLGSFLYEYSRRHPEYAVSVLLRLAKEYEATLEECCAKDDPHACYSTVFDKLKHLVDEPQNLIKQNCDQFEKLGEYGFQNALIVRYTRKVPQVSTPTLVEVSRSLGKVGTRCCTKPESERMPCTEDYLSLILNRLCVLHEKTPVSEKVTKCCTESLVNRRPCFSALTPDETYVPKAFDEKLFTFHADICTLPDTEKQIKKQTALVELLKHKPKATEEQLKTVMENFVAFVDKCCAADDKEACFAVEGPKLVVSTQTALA
Method: (§1) Fluorescence spectroscopy was carried out to characterize the mechanism of the interaction between three plasma proteins, BSA, AAG, and GGF, with the studied peptides. The fluorescence spectra of protein were collected during titration of L1–L3. The excitation wavelength was set at λ = 280 nm (both Trp and Tyr residues were excited).
(§2) To confirm this, the fluorescence data were further analyzed by the Stern–Volmer Equation (1) after correction due to the infer filter effect (2):(1) F0/F=1+kqτ[Q]=1+KSV (2) Fcorr=Fobs10^(Aex+Aem)/2 where F0 and F are the fluorescence intensities (after correction) of the protein and protein in the presence of L1–3, respectively, kq is the quenching rate constant, τ0 the average lifetime, [Q] is the L1–3 concentration, Ksv is the Stern–Volmer constant, and Fcorr, and Fobs are the corrected and observed fluorescence intensities, respectively. Aex and Aem are the absorbance values at excitation and emission wavelengths, respectively. A linear regression fit was used to calculate the value of the Stern–Volmer constant (Ksv). Then, assuming the average lifetime of the fluorophore in the excited state for a biomolecule as 10^−8 s, the quenching rate constant (kq) was computed. For dynamic quenching, the maximum scatters collision quenching rate constant for different quenchers with the biopolymers was reported to be 2 × 10^10 dm^3mol^−1s^−1 [55, 56]. […] Collisional quenching occurs when the excited-state fluorophore is deactivated by contact with some other molecule in solution (by collisions). […] This is a dynamic mechanism of quenching. The quenching constant characterizes the quenching mechanism. The maximum value for collisional quenching is 2 × 10^10 dm^3mol^−1s^−1. […] For further confirmation, measurements were made at, in addition to 297 K, temperatures 303 and 308 K. Experimental data points were fitted and analyzed using Equation (1).
(§3) Both for the complexes with BSA and with GGF, the binding constant (Kb) and the binding stoichiometry (n) were calculated. […] The values of Kb and n were calculated from the slope and the intercept of the log [(F0 − F)/F] versus log [Q] plot (Figure 2).
(§4) The forces involved in the interaction can be identified by measurement at different temperatures and then by thermodynamic analysis. The signs of the thermodynamic parameters identify the type of interactions. The enthalpy change (ΔH°), the entropic change (ΔS°), and the free energy change (ΔG°) were calculated from Equations (4) and (5):(4) […]=−ΔH^°/RT+ΔS^°/R (5) ΔG^°=ΔH^°−TΔS^°=−RTlnKb where Kb is the binding constant and R is the universal gas constant. To determine the thermodynamic parameters, the van’t Hoff plot was first conducted, i.e., the temperature dependence of the binding constant, according to Equation (4). The Kb values at the three temperatures were fitted by the linear regression method. The values of ΔH and ΔS were calculated from the slope and intercept at the fitted line. Next, the free energy change (ΔG°) was obtained from Equation (5).

[2] = test system: γ-globulin fraction (GGF); test: Fluorescence quenching of GGF by peptides L1–3; assay type: binding; conditions: for Stern–Volmer constant Ksv / binding constant Kb / logKb: GGF 1.0 µM, phosphate buffer; for Stern–Volmer constant Ksv: peptide 0.25–2.0 µM, λex 280 nm; for logKb: double log regression; for quenching rate constant kq: from Ksv with τ0 10^−8 s assumed
Method: as §1, §2, §3, §4

[3] = BSA, van't Hoff plot of Kb at 297, 303, 308 K

number of binding sites n ([1]; 297 K, BSA): 0.80 ± 0.02 | Stern–Volmer constant Ksv ([1]; 297 K, inner-filter corrected): 1.55 ± 0.07 × 10^5 dm^3mol^−1 | logKb ([1]; 297 K): 4.07 ± 0.07 | quenching rate constant kq ([1]; 297 K): 1.55 ± 0.07 × 10^13 dm^3mol^−1s^−1 | number of binding sites n ([1]; 303 K, BSA): 0.80 ± 0.04 | Stern–Volmer constant Ksv ([1]; 303 K): 1.21 ± 0.03 × 10^5 dm^3mol^−1 | logKb ([1]; 303 K): 3.95 ± 0.09 | quenching rate constant kq ([1]; 303 K): 1.21 ± 0.03 × 10^13 dm^3mol^−1s^−1 | number of binding sites n ([1]; 308 K, BSA): 0.80 ± 0.02 | Stern–Volmer constant Ksv ([1]; 308 K): 0.70 ± 0.06 × 10^5 dm^3mol^−1 | logKb ([1]; 308 K): 3.72 ± 0.15 | quenching rate constant kq ([1]; 308 K): 0.70 ± 0.06 × 10^13 dm^3mol^−1s^−1 | ΔG° ([1]; BSA, from ΔH° − TΔS°): −23 ± 1 kJmol^−1 | ΔH° [1, 3]: −54 ± 2 kJmol^−1 | ΔS° [1, 3]: −106 ± 3 Jmol^−1K^−1 | binding constant Kb ([2]; 297 K): 10.10 ± 0.24 × 10^4 dm^3mol^−1 | binding constant Kb ([2]; 303 K): 6.17 ± 0.25 × 10^4 dm^3mol^−1 | binding constant Kb ([2]; 308 K): 2.51 ± 0.12 × 10^4 dm^3mol^−1
Substance: Lys-Dab-Dab-Gly-Orn-Pro-His-Lys-Arg-Lys-Dbt [L1]
Stern–Volmer constant Ksv ([2]; 297 K, inner-filter corrected): 4.24 ± 0.06 × 10^4 dm^3mol^−1 | logKb ([2]; 297 K): 5.00 ± 0.12 | quenching rate constant kq ([2]; 297 K): 4.24 ± 0.06 × 10^12 dm^3mol^−1s^−1 | Stern–Volmer constant Ksv ([2]; 303 K): 4.03 ± 0.13 × 10^4 dm^3mol^−1 | logKb ([2]; 303 K): 4.79 ± 0.20 | quenching rate constant kq ([2]; 303 K): 4.03 ± 0.13 × 10^12 dm^3mol^−1s^−1 | Stern–Volmer constant Ksv ([2]; 308 K): 3.60 ± 0.06 × 10^4 dm^3mol^−1 | logKb ([2]; 308 K): 4.39 ± 0.21 | quenching rate constant kq ([2]; 308 K): 3.60 ± 0.06 × 10^12 dm^3mol^−1s^−1
